Measured values published in patent US8669265B2, “Hydrated form of erlotinib free base and a process for preparation of erlotinib hydrochloride polymorph form a substantially free of polymorph form B” (Hetero Research Foundation, priority 2007, dated 2014).

Assays:
[1] = Particle size distribution by laser diffraction (Sympatec Helos, 1 bar dispersive pressure); assay type: physicochemical; details: isolated crystalline product of the example; hydrochloride
Excerpt: The term “Particle Size Distribution (P.S.D.)” means the cumulative volume size distribution of equivalent spherical diameters as determined by laser diffraction at 1 bar dispersive pressure in a Sympatec Helos equipment. “Mean particle size distribution, i.e., d(0.5)” correspondingly, means the median of said particle size distribution.

[2] = Hygroscopicity and storage stability of the crystalline form (stated in words); assay type: physicochemical

SMILES	90 volume-% of the particles (D90) [1] [μm]	Mean particle size (D50) [1] [μm]	Storage stability [2]	Hygroscopicity [2]
C#Cc1cccc(Nc2ncnc3cc(OCCOC)c(OCCOC)cc23)c1.Cl [Example 6, N-(3-ethynylphenyl)-6,7-bis(2-methoxyethoxy)-4-quinazolinamine hydrochloride]	18.96	5.48		
C#Cc1cccc(Nc2ncnc3cc(OCCOC)c(OCCOC)cc23)c1.Cl [N-(3-ethynylphenyl)-6,7-bis(2-methoxyethoxy)-4-quinazolinamine hydrochloride]			stable over the time	
C#Cc1cccc(Nc2ncnc3cc(OCCOC)c(OCCOC)cc23)c1.Cl [Reference Example 1, N-(3-ethynylphenyl)-6,7-bis(2-methoxyethoxy)-4-quinazolinamine hydrochloride]	4.53	3.42		
C#Cc1cccc(Nc2ncnc3cc(OCCOC)c(OCCOC)cc23)c1 [crystalline erlotinib hydrate, erlotinib hydrate]			storage stable over the time	non-hygroscopic

The next lines start with the values.

90 volume-% of the particles (D90) [1] [μm]	Mean particle size (D50) [1] [μm]	Storage stability [2]	Hygroscopicity [2]	SMILES
7.74				C#Cc1cccc(Nc2ncnc3cc(OCCOC)c(OCCOC)cc23)c1.Cl [Reference Example 2, N-(3-ethynylphenyl)-6,7-bis(2-methoxyethoxy)-4-quinazolinamine hydrochloride]
4.61	3.50			C#Cc1cccc(Nc2ncnc3cc(OCCOC)c(OCCOC)cc23)c1.Cl [Reference Example 5, N-(3-ethynylphenyl)-6,7-bis(2-methoxyethoxy)-4-quinazolinamine hydrochloride]
